Test results as given in the supplement of paper PMC4862054.

Tests used:
Settings in all cases: incubation time: 72 h
BT-474 [1] = assay: normalised viability (% of control), CellTiter-Blue; higher = more viable cells (about 100 = DMSO control)
Outline: (§1)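 Vehicle (100) and a positive kill control (0) anchored the normalisation of each plate, and Z'-factor was used for quality control. Breast cancer cell lines in 20 µl suspension were incubated 72 h over compound in 5 µl medium in 384-well plates, followed by CellTiter-Blue at 560/590 nm. The value is normalised viability at a single listed concentration of the series.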

BT-549 [2] = assay: as above
Outline: as §1

CAL-120 = assay: as above
Outline: as §1

CAL-51 [3] = assay: as above
Outline: as §1

HCC1143 [4] = assay: as above
Outline: as §1

HCC1599 [5] = assay: as above
Outline: as §1

HCC1937 = assay: as above
Outline: as §1

MDA-MB-231 [6] = assay: as above
Outline: as §1

MDA-MB-453 [7] = assay: as above
Outline: as §1

MDA-MB-468 [8] = assay: as above
Outline: as §1

MFM-223 = assay: as above
Outline: as §1

SK-BR-3 [9] = assay: as above
Outline: as §1

BT-474 [10] = assay: drug sensitivity score (DSS), CellTiter-Blue viability (DSS (AUC-based score)); higher = stronger viability inhibition; extreme values may be limits of the assay
Procedure: (§2)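 DSRT with the CellTiter-Blue (resazurin reduction) viability readout, fluorescence 560/590 nm, 72 h incubation. Plates were normalised to DMSO and benzethonium chloride controls. DSS is computed from the area under the fitted dose-response curve (5 or 9 concentrations).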

BT-549 [11] = assay: as above
Procedure: as §2

CAL-51 [12] = assay: as above
Procedure: as §2

DU-4475 = assay: as above
Procedure: as §2

HCC1143 [13] = assay: as above
Procedure: as §2

HCC1599 [14] = assay: as above
Procedure: as §2

HDQ-P1 = assay: as above
Procedure: as §2

Hs578T = assay: as above
Procedure: as §2

MDA-MB-231 [15] = assay: as above
Procedure: as §2

MDA-MB-453 [16] = assay: as above
Procedure: as §2

MDA-MB-468 [17] = assay: as above
Procedure: as §2

SK-BR-3 [18] = assay: as above
Procedure: as §2

C[C@@H]1C[C@H]2[C@@H]3CCC4=CC(=O)C=C[C@]4(C)[C@@]3(F)[C@@H](O)C[C@]2(C)[C@@]1(O)C(=O)CO [Dexamethasone]
normalised viability [%]
Settings	3 nM	10 nM	30 nM	100 nM	1000 nM	10000 nM
BT-474 [1]	–	110	–	–	119	118
BT-549 [2]	–	93.6	–	–	90.3	93.5
CAL-51 [3]	106	–	91.9	95.6	–	–
CAL-120	–	76	–	–	77	80.1
HCC1143 [4]	–	76.5	–	–	89.1	81.2
HCC1599 [5]	–	124	–	–	82.1	86.7
HCC1937	–	82.5	–	–	100	78.9
MDA-MB-231 [6]	–	125	–	–	111	146
MDA-MB-453 [7]	110	–	78.2	76.3	–	–
MDA-MB-468 [8]	–	114	–	–	112	100
MFM-223	–	93.4	–	–	94.2	87.2
SK-BR-3 [9]	–	99.2	–	–	86.7	93

Settings	drug sensitivity score
BT-474 [10]	0
BT-549 [11]	0
CAL-51 [12]	0
DU-4475	0
HCC1143 [13]	0
HCC1599 [14]	0
HDQ-P1	0
Hs578T	0
MDA-MB-231 [15]	0
MDA-MB-453 [16]	7.98
MDA-MB-468 [17]	0
SK-BR-3 [18]	0

CC(C)C(=O)Nc1ccc([N+](=O)[O-])c(C(F)(F)F)c1 [Flutamide]
normalised viability [%]
Settings	3 nM	10 nM	30 nM	100 nM	1000 nM	10000 nM
BT-474 [1]	–	117	–	–	115	116
BT-549 [2]	–	89.7	–	–	84.3	90
CAL-51 [3]	118	–	108	106	–	–
CAL-120	–	96.7	–	–	95.6	96.8
HCC1143 [4]	–	82	–	–	86.3	82.5
HCC1599 [5]	–	105	–	–	114	118
HCC1937	–	96.9	–	–	84.2	97
MDA-MB-231 [6]	–	93.7	–	–	99.5	102
MDA-MB-453 [7]	123	–	94.8	107	–	–
MDA-MB-468 [8]	–	97.6	–	–	103	111
MFM-223	–	89.4	–	–	84.8	109
SK-BR-3 [9]	–	108	–	–	106	106

Settings	drug sensitivity score
BT-474 [10]	0
BT-549 [11]	0
CAL-51 [12]	0
DU-4475	0
HCC1143 [13]	0
HCC1599 [14]	0
HDQ-P1	0
Hs578T	0
MDA-MB-231 [15]	0
MDA-MB-453 [16]	0
MDA-MB-468 [17]	0
SK-BR-3 [18]	0
